Literature values in patent EP2479272A1, “METHOD FOR PRODUCING MONATIN” (Ajinomoto Co., Inc., priority 2010, dated 2012).

Settings: compared with sucrose; from Patent Document 1

N[C@@H](CC(O)(Cc1c[nH]c2ccccc12)C(=O)O)C(=O)O (stereo partly shown) [Monatin, 4-(indole-3-yl-methyl)-4-hydroxy-glutamic acid]
sweetness: one thousand and several hundreds times sweeter than sucrose
